Key:
[1] = system: GABA spontaneous inhibitory postsynaptic currents; experiment: GABA spontaneous inhibitory postsynaptic currents (sIPSCs); type: cell-based; conditions: compound alone
[2] = system: spreading depolarization in mouse brain slices; experiment: KCl-induced spreading depolarization threshold in mouse brain slices; type: cell-based; conditions: for KCl concentration necessary to initiate spreading depolarization (SD threshold): test compound alone in ACSF bath
Description: (§1) In brain slice studies normoxic SD is induced by briefly raising [K^+]o. An ischemic version of SD, the anoxic depolarization (AD), is induced by removing O2/glucose from the aCSF for about 10 min. Intrinsic optical signals (IOSs) represent change in the way tissue scatters light. Light transmittance (LT), essentially unscattered light, is imaged using a charge-coupled device (CCD) to measure second-by-second regional DLT during periods of 1 h or more. The front of the propagating SD or AD event is imaged as an elevated LT, caused by cell swelling. A negative voltage shift, the electrophysiological signature of SD, is simultaneously recorded extracellularly. Normoxic SD is typically the cortical occurrence in migraine, while an anoxic condition is more typical of ischemic attacks and stroke.
(§2) To determine the threshold for evoked spreading depolarization in mouse brain slices, mice (C57Bl6J, P30-50) were deeply anesthetized by ketamine/xylazine mix (i.p. 85 and […], respectively), cardiac perfused with cutting solution (110 mM N-Methyl-D-glucamine, 10 mM glucose, 6 mM magnesium sulfate, 3 mM KCl, 25 mM sodium bicarbonate, 1.25 mM sodium monophosphate, 0.2 mM calcium chloride, and 0.4 mM ascorbic acid equilibrated with 95% O2/5% CO2), and decapitated. The brain was rapidly extracted, cerebellum removed, forebrain hemisected, and 300 μm thick coronal slices were cut on a vibratome.
Slices were first incubated in the cutting solution at 37 C for 10 minutes and then transferred to artificial cerebrospinal fluid (“ACSF”: 126 mM sodium chloride, 10 mM glucose, 1 mM magnesium sulfate, 3 mM KCl, 25 mM sodium bicarbonate, 1.25 mM sodium monophosphate, 2 mM calcium chloride, and 0.4 mM ascorbic acid equilibrated with 95% O2/5% CO2).
(§3) In all in vitro experiments, a pair of slices were then transferred to a recording chamber continuously superfused with ACSF at […] 33-34° C. For pharmacological analysis, slices were pre-incubated in the recording chamber with test compound for at least for 20 minutes. Slow tissue depolarizations (SD) were detected by DC potential shift or imaging of intrinsic optical signals (IOS) in the brain slice. DC potential were recorded using glass pipette electrodes containing ACSF (2-3MO). Signals were amplified with a DC amplifier (MultiClamp 700B), digitized (Digidata 1550B) and analyzed with the Clampfit program ([…]). IOS were detected by acquiring images of brain slices with a CMOS camera (Hamamatsu ORCA). Images were acquired at 0.2-0.5 Hz and analyzed with imageJ software.
First, by incrementally elevating the KCl concentration of bath ACSF every 5 minutes (initial starting concentration of 6 mM, then elevated by +1 mM at 5-minute intervals). The KCl concentration that triggered the first SD was considered as the SD threshold. In experiments using the test drug (fenfluramine), the drug was added to the solution before the KCl challenge.

[3] = cited from earlier work
[4] = target: Sig1 receptor [Sig1R]/binding immunoglobulin protein (BiP) (Homo sapiens, UniProt Q99720); conditions: with PRE-084; cited from earlier work
Sig1 receptor [Sig1R]/binding immunoglobulin protein (BiP), sequence (Q99720 whole entry): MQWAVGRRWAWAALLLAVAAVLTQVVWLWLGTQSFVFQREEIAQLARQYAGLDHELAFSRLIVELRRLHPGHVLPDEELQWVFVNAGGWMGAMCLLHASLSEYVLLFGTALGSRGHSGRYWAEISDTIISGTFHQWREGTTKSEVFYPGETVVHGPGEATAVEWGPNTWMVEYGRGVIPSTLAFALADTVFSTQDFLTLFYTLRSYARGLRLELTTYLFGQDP

Sig1R = conditions: with (+)-SKF-10,047; cited from earlier work
[5] = system: spreading depolarization in cortical slices; experiment: Oxygen/glucose deprivation (OGD) model of spreading depolarization in brain slices; type: cell-based, mouse; conditions: for time to onset of spreading depolarization: treatment vs non-treatment
Description: as §1
as §2, with “vibratome. […]” for “vibratome.”
as §3, with “For pharmacological analysis, slices were pre-incubated in the recording chamber with test compound for at least for 20 minutes.” left out, “software. […]” for “software.”

## NCCc1c[nH]c2ccc(O)cc12 [serotonin, 5-hydroxytryptamine]
[1]
  GABA spontaneous inhibitory postsynaptic currents: increase

## COc1ccc2c(c1)[C@]13CCCC[C@@H]1[C@H](C2)N(C)CC3 [dextromethorphan]
[2]; KCl model
  KCl concentration necessary to initiate spreading depolarization (SD threshold): raising the spreading depolarization threshold

## CN1CC2c3ccccc3Oc3ccc(Cl)cc3C2C1 (stereo not drawn) [asenapine]
[2]; KCl model, asenapine added to fenfluramine
  effect of multi-5-HT receptor antagonist on protective effects of fenfluramine: did not affect

## CCNC(C)Cc1cccc(C(F)(F)F)c1 (stereo not drawn) [fenfluramine, 3-trifluoromethyl-N-ethylamphetamine]
[1]
  GABA spontaneous inhibitory postsynaptic currents: increase
[2]; KCl model, 5-HT4 antagonist added
  protective effect of fenfluramine with addition of a 5-HT4 antagonist: only slightly diminished
[2]; KCl model
  KCl concentration necessary to initiate spreading depolarization (SD threshold): raising the KCl concentration necessary to initiate spreading depolarization
[2]; fenfluramine with added serotonin
  additivity or synergism on spreading depolarization threshold: lack of additivity or synergism
[2]; with blockade of the GABA receptors
  fenfluramine's effects on spreading depolarization under blockade of the GABA receptors: does not abolish
[3]; chronic use at doses of 60 to 120 mg, some patients
  cardiac adverse effects with chronic use: cardiac valve abnormalities or pulmonary hypertension
[3]; low dose, Dravet Syndrome and Lennox Gastaut syndrome
  anticonvulsant/antiseizure activity: anticonvulsant/antiseizure activity
[4]
  Sig1R/BiP dissociation induced by the Sig1R agonist PRE-084: potentiated
Sig1R
  (+)-SKF-10,047-induced increase in the twitch contraction amplitude: potentiated
[5]; 0% oxygen and 0 mM glucose
  time to onset of spreading depolarization: non-significant difference
[5]; 0% oxygen and 2 mM glucose
  time to onset of spreading depolarization: significant increase in time to onset
[5]; anoxic conditions
  effect on SD under anoxic conditions (AD): positive effect

— patent US20240299317A1, “Fenfluramine for Treatment of Conditions Associated with Spreading Depolarization” (ZOGENIX INTERNATIONAL LIMITED, priority 2021, published 2024)
